# Reference: patent US9073855B2, “BCL-2 selective apoptosis-inducing agents for the treatment of cancer and immune diseases” (AbbVie Inc., priority 2008, dated 2015)
# How the values were obtained:
# GST-Bcl-2 = GST-Bcl-2 (Homo sapiens, UniProt P10415); assay: TR-FRET binding assay, GST-Bcl-2 with F-Bak peptide probe; settings: for Ki: TR-FRET Binding Affinity, GST-Bcl-2, F-Bak peptide probe; for Binding selectivity ratio (Bcl-XL Ki/Bcl-2 Ki): ratio of TR-FRET Ki values, Bcl-XL over Bcl-2
# Outline: (§1)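 Compounds were serially diluted in DMSO from a 50 μM starting solution (2× the starting concentration; 10% DMSO). Plates were incubated for 3 h at room temperature, and TR-FRET was read with 340/35 nm excitation and emission at 520/525 nm (F-Bak) and 495/510 nm (Tb antibody). Ki values were calculated using Wang's competitive-binding equation.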
# GST-Bcl-XL = GST-Bcl-XL (Homo sapiens, UniProt Q07817); assay: TR-FRET binding assay, GST-Bcl-XL with F-Bak peptide probe; settings: TR-FRET Binding Affinity, GST-Bcl-XL, F-Bak peptide probe
# Sequence of GST-Bcl-XL (Q07817 whole entry): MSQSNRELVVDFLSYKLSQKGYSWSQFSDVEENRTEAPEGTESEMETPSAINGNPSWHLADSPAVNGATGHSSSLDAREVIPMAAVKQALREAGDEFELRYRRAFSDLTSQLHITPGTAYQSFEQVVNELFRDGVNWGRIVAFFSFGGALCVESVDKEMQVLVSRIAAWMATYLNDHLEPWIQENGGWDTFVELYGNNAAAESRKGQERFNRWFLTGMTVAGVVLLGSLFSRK
# Outline: as §1
# FL5.12/Bcl-2 cells = assay: FL5.12/Bcl-2 cell viability assay under IL-3 withdrawal (CellTitre Glo); assay type: cell-based, murine; settings: Mus musculus, IL-3 withdrawn 48 hrs, then 24 hrs with compound
# Outline: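 Viability measured by CellTitre Glo after FL5.12/Bcl-2 murine cells, starved of IL-3 for 48 hrs, were treated with compounds for another 24 hrs. Killing reflects inhibition of Bcl-2 sequestration of Bim and Puma.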
# Sequence of GST-Bcl-2 (P10415 whole entry): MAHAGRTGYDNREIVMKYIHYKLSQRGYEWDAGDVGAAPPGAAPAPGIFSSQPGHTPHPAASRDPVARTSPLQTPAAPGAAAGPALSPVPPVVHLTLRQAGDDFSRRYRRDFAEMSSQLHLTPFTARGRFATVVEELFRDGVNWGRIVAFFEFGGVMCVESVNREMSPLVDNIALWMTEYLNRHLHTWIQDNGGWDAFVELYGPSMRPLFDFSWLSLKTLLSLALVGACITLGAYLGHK
SMILES,Ki (GST-Bcl-2) [nM],Ki (GST-Bcl-XL) [nM],EC50 (FL5.12/Bcl-2 cells) [nM],Binding selectivity ratio (Bcl-XL Ki/Bcl-2 Ki) (GST-Bcl-2)
"CC1(C)CCC(CN2CCN(c3ccc(C(=O)NS(=O)(=O)c4cc(F)c(NCC5CCOCC5)cc4Cl)c(Oc4ccc5[nH]ccc5c4)c3)CC2)=C(c2ccc(Cl)cc2)C1 [Example 379, N-({2-chloro-5-fluoro-4-[(tetrahydro-2H-pyran-4-ylmethyl)amino]phenyl}sulfonyl)-4-(4-{[2-(4-chlorophenyl)-4,4-dimethylcyclohex-1-en-1-yl]methyl}piperazin-1-yl)-2-(1H-indol-5-yloxy)benzamide]",256,> 660,> 500,
"CC1(C)CCC(CN2CCN(c3ccc(C(=O)NS(=O)(=O)c4cnc(OCC5CCOCC5)c(Br)c4)c(Oc4cccc5[nH]ccc45)c3)CC2)=C(c2ccc(Cl)cc2)C1 [Example 364, N-{[5-bromo-6-(tetrahydro-2H-pyran-4-ylmethoxy)pyridin-3-yl]sulfonyl}-4-(4-{[2-(4-chlorophenyl)-4,4-dimethylcyclohex-1-en-1-yl]methyl}piperazin-1-yl)-2-(1H-indol-4-yloxy)benzamide]",0.006,76,185,
"O=C(NS(=O)(=O)c1ccc(NCC2CCOCC2)c([N+](=O)[O-])c1)c1ccc(N2CCN(CC3=C(c4ccc(Cl)cc4)CCN(CCCO)C3)CC2)cc1Oc1cccc2[nH]ccc12 [Example 355, 4-(4-{[4-(4-chlorophenyl)-1-(3-hydroxypropyl)-1,2,5,6-tetrahydropyridin-3-yl]methyl}piperazin-1-yl)-2-(1H-indol-4-yloxy)-N-({3-nitro-4-[(tetrahydro-2H-pyran-4-ylmethyl)amino]phenyl}sulfonyl)benzamide]",0.12,> 660,> 500,
"CC1(C)CCC(CN2CCN(c3ccc(C(=O)NS(=O)(=O)c4ccc(NC5CCN(CCn6cccn6)CC5)c([N+](=O)[O-])c4)c(Oc4ccc5[nH]ccc5c4)c3)CC2)=C(c2ccc(Cl)cc2)C1 [Example 243, 4-(4-{[2-(4-chlorophenyl)-4,4-dimethylcyclohex-1-en-1-yl]methyl}piperazin-1-yl)-2-(1H-indol-5-yloxy)-N-{[3-nitro-4-({1-[2-(1H-pyrazol-1-yl)ethyl]piperidin-4-yl}amino)phenyl]sulfonyl}benzamide]",0.28,> 660,28,
"CC1(C)CCC(CN2CCN(c3ccc(C(=O)NS(=O)(=O)c4ccc(NCCN5CCCC5=O)c([N+](=O)[O-])c4)c(Oc4ccc5[nH]ccc5c4)c3)CC2)=C(c2ccc(Cl)cc2)C1 [Example 251, 4-(4-{[2-(4-chlorophenyl)-4,4-dimethylcyclohex-1-en-1-yl]methyl}piperazin-1-yl)-2-(1H-indol-5-yloxy)-N-[(3-nitro-4-{[2-(2-oxopyrrolidin-1-yl)ethyl]amino}phenyl)sulfonyl]benzamide]",0.328,472,78.1,
"CC1(C)CCC(CN2CCN(c3ccc(C(=O)NS(=O)(=O)c4ccc(NC5CCN(C6CCOCC6)CC5)c([N+](=O)[O-])c4)c(Oc4cccc5[nH]ncc45)c3)CC2)=C(c2ccc(Cl)cc2)C1 [Example 401, 4-(4-{[2-(4-chlorophenyl)-4,4-dimethylcyclohex-1-en-1-yl]methyl}piperazin-1-yl)-2-(1H-indazol-4-yloxy)-N-({3-nitro-4-[(1-tetrahydro-2H-pyran-4-ylpiperidin-4-yl)amino]phenyl}sulfonyl)benzamide]",< 0.01,1.62,5.38,>162.1
"CC1(C)CCC(CN2CCN(c3ccc(C(=O)NS(=O)(=O)c4ccc(NCC(F)(F)F)c([N+](=O)[O-])c4)c(Oc4cccc5[nH]ccc45)c3)CC2)=C(c2ccc(Cl)cc2)C1 [Example 343, 4-(4-{[2-(4-chlorophenyl)-4,4-dimethylcyclohex-1-en-1-yl]methyl}piperazin-1-yl)-2-(1H-indol-4-yloxy)-N-({3-nitro-4-[(2,2,2-trifluoroethyl)amino]phenyl}sulfonyl)benzamide]",0.576,> 660,54.9,
"CN1CCC(Nc2ccc(S(=O)(=O)NC(=O)c3ccc(N4CCN(CC5=C(c6ccc(Cl)cc6)CC(C)(C)CC5)C(CO)C4)cc3Oc3ccc4[nH]ccc4c3)cc2[N+](=O)[O-])CC1 (centres unmarked) [Example 218, 4-[4-{[2-(4-chlorophenyl)-4,4-dimethylcyclohex-1-en-1-yl]methyl}-3-(hydroxymethyl)piperazin-1-yl]-2-(1H-indol-5-yloxy)-N-({4-[(1-methylpiperidin-4-yl)amino]-3-nitrophenyl}sulfonyl)benzamide]",0.131,96.9,33,
"COCCCNc1ccc(S(=O)(=O)NC(=O)c2ccc(N3CCN(CC4=C(c5ccc(Cl)cc5)CC(C)(C)CC4)CC3)cc2Oc2cccc3[nH]ccc23)cc1[N+](=O)[O-] [Example 318, 4-(4-{[2-(4-chlorophenyl)-4,4-dimethylcyclohex-1-en-1-yl]methyl}piperazin-1-yl)-2-(1H-indol-4-yloxy)-N-({4-[(3-methoxypropyl)amino]-3-nitrophenyl}sulfonyl)benzamide]",1.47,151,77,
"CC1(C)CCC(CN2CCN(c3ccc(C(=O)NS(=O)(=O)c4ccc(NCCN5CCNC(=O)C5)c([N+](=O)[O-])c4)c(Oc4ccc5[nH]ccc5c4)c3)CC2)=C(c2ccc(Cl)cc2)C1 [Example 273, 4-(4-{[2-(4-chlorophenyl)-4,4-dimethylcyclohex-1-en-1-yl]methyl}piperazin-1-yl)-2-(1H-indol-5-yloxy)-N-[(3-nitro-4-{[2-(3-oxopiperazin-1-yl)ethyl]amino}phenyl)sulfonyl]benzamide]",0.076,181,70,
"CC1(C)CCC(CN2CCN(c3ccc(C(=O)NS(=O)(=O)c4ccc(NCCN5CCNC(=O)C5)c([N+](=O)[O-])c4)c(Oc4cccc5[nH]ccc45)c3)CC2)=C(c2ccc(Cl)cc2)C1 [Example 280, 4-(4-{[2-(4-chlorophenyl)-4,4-dimethylcyclohex-1-en-1-yl]methyl}piperazin-1-yl)-2-(1H-indol-4-yloxy)-N-[(3-nitro-4-{[2-(3-oxopiperazin-1-yl)ethyl]amino}phenyl)sulfonyl]benzamide]",0.178,195,247,
"CC1(C)CCC(CN2CCN(c3ccc(C(=O)NS(=O)(=O)c4cnc(OCC5(F)CCOCC5)c(C#N)c4)c(Oc4ccc5[nH]ccc5c4)c3)CC2)=C(c2ccc(Cl)cc2)C1 [Example 385, 4-(4-{[2-(4-chlorophenyl)-4,4-dimethylcyclohex-1-en-1-yl]methyl}piperazin-1-yl)-N-({5-cyano-6-[(4-fluorotetrahydro-2H-pyran-4-yl)methoxy]pyridin-3-yl}sulfonyl)-2-(1H-indol-5-yloxy)benzamide]",0.062,130,56.4,
"O=C(NS(=O)(=O)c1ccc(NCC2CCOCC2)c([N+](=O)[O-])c1)c1ccc(N2CCN(CC3=C(c4ccc(Cl)cc4)CCC(N4CCOCC4)C3)CC2)cc1Oc1ccc2[nH]ccc2c1 (centres unmarked) [Example 249, 4-(4-{[2-(4-chlorophenyl)-5-morpholin-4-ylcyclohex-1-en-1-yl]methyl}piperazin-1-yl)-2-(1H-indol-5-yloxy)-N-({3-nitro-4-[(tetrahydro-2H-pyran-4-ylmethyl)amino]phenyl}sulfonyl)benzamide]",0.09,> 660,41.2,
"CC(C1=C(c2ccc(Cl)cc2)CC(C)(C)CC1)N1CCN(c2ccc(C(=O)NS(=O)(=O)c3ccc(NCCCN4CCOCC4)c([N+](=O)[O-])c3)c(Oc3ccc4[nH]ccc4c3)c2)CC1 (centres unmarked) [Example 257, 4-(4-{1-[2-(4-chlorophenyl)-4,4-dimethylcyclohex-1-en-1-yl]ethyl}piperazin-1-yl)-2-(1H-indol-5-yloxy)-N-({4-[(3-morpholin-4-ylpropyl)amino]-3-nitrophenyl}sulfonyl)benzamide]",0.171,17.1,9.34,
"CC(C1=C(c2ccc(Cl)cc2)CC(C)(C)CC1)N1CCN(c2ccc(C(=O)NS(=O)(=O)c3ccc(NCC4CCOCC4)c([N+](=O)[O-])c3)c(Oc3ccc4[nH]ccc4c3)c2)CC1 (centres unmarked) [Example 253, 4-(4-{1-[2-(4-chlorophenyl)-4,4-dimethylcyclohex-1-en-1-yl]ethyl}piperazin-1-yl)-2-(1H-indol-5-yloxy)-N-({3-nitro-4-[(tetrahydro-2H-pyran-4-ylmethyl)amino]phenyl}sulfonyl)benzamide]",0.142,> 660,7.58,
"CC1(C)CCC(CN2CCN(c3ccc(C(=O)NS(=O)(=O)c4ccc(N[C@H]5CC[C@H](N6CCOCC6)CC5)c([N+](=O)[O-])c4)c(Oc4cccc5[nH]ncc45)c3)CC2)=C(c2ccc(Cl)cc2)C1 [Example 402, Trans-4-(4-{[2-(4-chlorophenyl)-4,4-dimethylcyclohex-1-en-1-yl]methyl}piperazin-1-yl)-2-(1H-indazol-4-yloxy)-N-({4-[(4-morpholin-4-ylcyclohexyl)amino]-3-nitrophenyl}sulfonyl)benzamide]",0.03,4.15,13.4,137.4
"CC1(C)CCC(CN2CCN(c3ccc(C(=O)NS(=O)(=O)c4ccc(NCCN5CCCCC5=O)c([N+](=O)[O-])c4)c(Oc4ccc5[nH]ccc5c4)c3)CC2)=C(c2ccc(Cl)cc2)C1 [Example 267, 4-(4-{[2-(4-chlorophenyl)-4,4-dimethylcyclohex-1-en-1-yl]methyl}piperazin-1-yl)-2-(1H-indol-5-yloxy)-N-[(3-nitro-4-{[2-(2-oxopiperidin-1-yl)ethyl]amino}phenyl)sulfonyl]benzamide]",0.454,> 660,56.4,
